Measured values from ChEMBL document CHEMBL4052720, “Activity cliff for 7-substituted pyrrolo-pyrimidine inhibitors of HCK explained in terms of predicted basicity of the amine nitrogen” (Bioorg Med Chem, 2017).

Assays:
[1] = target: T1, Tyrosine-protein kinase HCK (Homo sapiens, UniProt P08631); experiment: Inhibition of HCK (75 to 526 residues) (unknown origin) expressed in Sf9 insect cells after 120 mins
[2] = target: T1, Tyrosine-protein kinase HCK; experiment: biochemical

T1 sequence (P08631 whole entry, the tested form may be a part): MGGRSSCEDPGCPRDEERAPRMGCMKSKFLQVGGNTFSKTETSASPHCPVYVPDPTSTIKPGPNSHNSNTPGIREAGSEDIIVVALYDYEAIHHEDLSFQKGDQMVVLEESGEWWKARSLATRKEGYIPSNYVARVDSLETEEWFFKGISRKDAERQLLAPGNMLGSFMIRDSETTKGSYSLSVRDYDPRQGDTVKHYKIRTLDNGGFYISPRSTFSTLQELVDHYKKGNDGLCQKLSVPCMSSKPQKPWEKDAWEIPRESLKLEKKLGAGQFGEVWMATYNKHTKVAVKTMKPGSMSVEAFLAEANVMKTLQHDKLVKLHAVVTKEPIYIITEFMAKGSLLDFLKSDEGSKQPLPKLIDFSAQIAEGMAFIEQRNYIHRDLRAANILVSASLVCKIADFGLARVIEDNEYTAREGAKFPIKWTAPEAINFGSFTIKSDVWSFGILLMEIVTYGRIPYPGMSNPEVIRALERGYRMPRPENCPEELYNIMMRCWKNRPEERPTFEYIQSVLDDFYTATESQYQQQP

Row | IC50 ([1]; read-out: IC50) [nM] | Structure (SMILES) | IC50 [2] [nM] | IC50 ([1]; read-out: pIC50 (converted)) [nM]
1 | 1320 | CCOC(=O)[C@H](CC(C)C)N[C@H]1CC[C@H](n2cc(-c3ccc(Oc4ccccc4)cc3)c3c(N)ncnc32)CC1 |  | 
2 | 111 | CNC(=O)[C@H](CC(C)C)N[C@H]1CC[C@H](n2cc(-c3ccc(Oc4ccccc4)cc3)c3c(N)ncnc32)CC1 |  | 
3 | 11 | CC(C)C[C@H](N[C@H]1CC[C@H](n2cc(-c3ccc(Oc4ccccc4)cc3)c3c(N)ncnc32)CC1)C(=O)O |  | 
4 | 686 | CC(C)C[C@H](N[C@H]1CC[C@H](n2cc(-c3ccc(Oc4ccccc4)cc3)c3c(N)ncnc32)CC1)C(=O)N(C)C |  | 

The next lines start with the compound.

Row | Structure (SMILES) | IC50 ([1]; read-out: IC50) [nM] | IC50 [2] [nM] | IC50 ([1]; read-out: pIC50 (converted)) [nM]
5 | CC(C)C[C@H](N[C@H]1CC[C@H](n2cc(-c3ccc(Oc4ccccc4)cc3)c3c(N)ncnc32)CC1)C(N)=O | 210 |  | 
6 | CN1CCN([C@H]2CC[C@H](n3cc(-c4ccc(Oc5ccccc5)cc4)c4c(N)ncnc43)CC2)CC1 |  | 0.43 | 0.427
